pEC50: −log10 of the molar value. Like-named read-outs stand apart in the source and are kept apart here.
Test system: isolated rabbit thoracic aorta preparations
Assay: Vessel relaxation in isolated rabbit thoracic aorta rings precontracted with noradrenaline
Details: Oryctolagus cuniculus
[1] = read-out: Vessel Relaxation Data ED50
[2] = read-out: vessel relaxation EC50

Cc1ncc2c(c1O)CO[C@H]2c1ccc(Cl)cc1
pEC50 [1]: 4.45

Cc1ncc2c(c1OC(=O)C1C[C@H](O[N+](=O)[O-])[C@H](O[N+](=O)[O-])C1)CO[C@H]2c1ccc(Cl)cc1 (stereo partly drawn)
pEC50 [1]: 5.20

CO[C@H]1C[C@H](C(=O)O)C[C@@H]1O[N+](=O)[O-]
pEC50 [1]: 3.90

CO[C@H]1CC(C(=O)Oc2c(C)ncc3c2CO[C@H]3c2ccc(Cl)cc2)C[C@@H]1O[N+](=O)[O-] (stereo partly drawn)
pEC50 [1]: 4.73

CC(=O)N[C@H](C(=O)O)C(C)(C)SN=O (racemic) [SNAP, S-nitroso-N-acetylpenicillamine, reference compound]
pEC50 [1]: 6.63

Cc1ncc2c(c1OC(=O)OC[C@H]1C[C@H](O[N+](=O)[O-])[C@H](O[N+](=O)[O-])C1)COC2c1ccc(Cl)cc1 (stereo partly drawn) [Example 39]
pEC50 [2]: > 4.30

Cc1ncc2c(c1OC(=O)OC[C@@H]1C[C@H](O[N+](=O)[O-])[C@H](O[N+](=O)[O-])C1)COC2c1ccc(Cl)cc1 (stereo partly drawn) [Example 40]
pEC50 [2]: > 4.30

Cc1ncc2c(c1OC(=O)O[C@H]1CO[C@H]3[C@@H]1OC[C@H]3O[N+](=O)[O-])COC2c1ccc(Cl)cc1 (stereo partly drawn) [Example 45]
pEC50 [2]: > 4.30

CO[C@H]1C[C@@H](C(=O)Oc2c(C)ncc3c2CO[C@H]3c2ccc(Cl)cc2)C[C@@H]1O[N+](=O)[O-] [Example 60, (3S)-3-(4-chlorophenyl)-6-methyl-1,3-dihydrofuro[3,4-c]pyridin-7-yl(1R,3S,4S)-3-methoxy-4-(nitrooxy)cyclopentanecarboxylate]
pEC50 [2]: > 4.30
